From patent publication US20200405739A1, “MTOR INHIBITOR, PHARMACEUTICAL COMPOSITION AND USE THEREOF” (SHENYANG FUYANG PHARMACEUTICAL TECHNOLOGY CO., LTD., priority 2018, published 2020)

Experiments:
[1] = test system: PI3K/Akt/mTOR signaling pathway protein; assay: Western blot of PI3K/Akt/mTOR pathway proteins in A549 cells (Test Example 2); format: cell-based, human; settings: 24 h; for activation of PI3K protein, 4EBP1 protein, mTOR protein / expression of Akt protein and S6K1 protein and of their activated proteins: Western blot
Procedure: A549 cells were purchased from American Type Culture Collection (ATCC, Manassas, Va., USA). The cells were cultured in a DMEM medium containing 10% fetal bovine serum, 2% glutamine and penicillin (100 U/ml) in an incubator at 37° C. with 5% CO2. The cells used in the experiment were all cells in logarithmic phase.
A549 was an adherent cell, cells in logarithmic growth phase was selected as the experimental group.
1) 60-100 μl of lysate was added to each tube of cells, and was subjected to ice bath in a refrigerator at 4° C. for 1 h; the solution was centrifuged for 10-15 min at 12,000 r/min, the supernatant was suck out to a 0.5 ml EP tube; after the quantitative protein was measured with Bio-Rad, 5× loading buffers were added, and the solution was subjected to boiling water bath for 3-5 min and then was cryopreserved at −80° C.
2) 15%, 12% or 10% acrylamide separation gel was prepared according to Tab. 2-1, and was then mixed with various ingredients successively; once TEMED and AP were added, the mixture was quickly rotated and poured between the two glass plates of the electrophoresis tank, leaving the space required for pouring the stacking gel.
The separation gel was covered with a layer of isopropyl alcohol, and the gel was placed vertically at room temperature for about 30 min.
3) After the separation gel was completely polymerized, the isopropyl alcohol was removed, and the gel was washed with deionized water for 10 times; water was absorbed with filter paper, a stacking gel was prepared according to Tab.2-2, and a clean sample comb was immediately inserted after adding the stacking gel into electrophoresis tank.
4) After the stacking gel was completely polymerized, the electrophoresis instrument was filled with 1×electrophoretic buffer solution, samples were added into sample holes according to a predetermined sequence to start electrophoresis, the voltage was 50-60V when the samples were located at the stacking gel, and the voltage was adjusted to 100-140V when the samples swam to the separation gel.
1) After the SDS polyacrylamide gel electrophoresis was completed, the gel was placed in the transfer buffer and soaked for 30 min. 8 pieces of Whatman 3 MM filter paper and 1 piece of nitrocellulose membrane were cut out, which were consistent with the size of the gel. The nitrocellulose membrane was immersed in methanol for 1 min, and the nitrocellulose membrane was immersed in deionized water to remove air bubbles.
2) The gel was stacked into a “sandwich” shape and inserted into the transfer cell. The gel was connected to the cathode on one side, 100 mA for 3 h.
3) The transferred nitrocellulose membrane entered the Ponceau S staining solution for 5-10 min, and was shaken gently during the period. After the protein band appeared, it was rinsed with deionized water several times, and the position of the standard protein molecular weight was marked with waterproof ink.
4) The membrane was placed in a petri dish with a blocking solution and blocked for 2 h.
5) The blocking solution containing a first antibody was added at 0.1 ml/cm^2 and stayed overnight at 4° C. (dilution multiples of various antibodies are as shown in Tab 0.2-2)
6) The first antibody was recovered, the membrane was rinsed with PBST 3 times for 10 min each time, and was then transferred to a solution containing 150 mM NaCl and 50 mM Tris-HCl (pH 7.5) and shaken for 10 min.
7) A phosphate-free and sodium azide-free blocking solution containing a second antibody was added at 0.1 ml/cm2, wherein the second antibody labeled with horseradish peroxidase was diluted 1,000 times.
8) It was rinsed with 150 mM NaCl and 50 mmol/L Tris-HCl (pH 7.5) solution for 3 times for 10 min each time. Color development was carried out in a dark room with an ECL kit, and pictures were scanned and saved. […]

[2] = test system: mouse liver cancer cells H22; assay: in vivo tumor growth inhibition
[3] = test system: non-small cell lung cancer cells A549; assay: in vivo tumor growth inhibition
[4] = human body; cited from earlier work

Row | Compound | activation of PI3K protein, 4EBP1 protein, mTOR protein [1] | expression of Akt protein and S6K1 protein and of their activated proteins [1] | inhibition of tumor growth in vivo [2] | inhibitory effects on AKT, S6K1 and 4EBP1 compared with rapamycin ([1]; rapamycin 20 μg/ml as control drug) | inhibition of tumor growth in vivo [3] | absolute oral bioavailability [4]
1 | CCC(=O)O[C@@H]1CC(=O)O[C@H](C)C/C=C/C=C/[C@H](O[C@H]2CC[C@H](N(C)C)[C@@H](C)O2)[C@H](C)C[C@H](CC=O)[C@H](O[C@@H]2O[C@H](C)[C@@H](O[C@H]3C[C@@](C)(O)[C@@H](OC(=O)CC(C)C)[C@H](C)O3)[C@H](N(C)C)[C@H]2O)[C@H]1OC [isovalerylspiramycin III] | inhibit the activation of PI3K protein, 4EBP1 protein and mTOR protein | inhibit the expression of AKT protein and S6K1 protein and the expression of their activated proteins |  |  |  | 
2 | CO[C@@H]1[C@@H](O[C@@H]2O[C@H](C)[C@@H](O[C@H]3C[C@@](C)(O)[C@@H](OC(=O)CC(C)C)[C@H](C)O3)[C@H](N(C)C)[C@H]2O)[C@@H](CC=O)C[C@@H](C)[C@@H](O[C@H]2CC[C@H](N(C)C)[C@@H](C)O2)/C=C/C=C/C[C@@H](C)OC(=O)C[C@H]1O [isovalerylspiramycin I] | inhibit the protein activation of the PI3K/AKT/mTOR signaling pathway | inhibit expression of Akt protein and S6K1 protein and expression of their activated proteins | obvious inhibiting effects | more excellent inhibitory effects on AKT, S6K1 and 4EBP1 | obvious inhibiting effects | 
3 | isovalerylspiramycin II | inhibit the activation of PI3K protein, 4EBP1 protein and mTOR protein | inhibit the expression of AKT protein and S6K1 protein and the expression of their activated proteins |  |  |  | 
4 | spiramycin |  |  |  |  |  | 30-40%
